Experimental data taken from US10239894B2, “Inhibitors of indoleamine 2,3-dioxygenase” (GLAXOSMITHKLINE INTELLECTUAL PROPERTY DEVELOPMENT LIMITED, priority 2015, dated 2019).

Tests used:
Recombinant human IDO1 = molecular target: T1, Recombinant human IDO1 (Homo sapiens, UniProt P14902); test: IDOi enzyme assay (absorbance readout of NFK formation at 320 nm); format: biochemical; details: recombinant human IDO1, 2 mM D-tryptophan, 30 min preincubation; read-out: pXC50 enzyme (converted)
T1 construct: made in house; host or cells: E. coli

[1] = molecular target: T2, indoleamine 2, 3-dioxygenase (IDO1) in IFN-γ stimulated HeLa cells (Homo sapiens, UniProt P14902); test: HeLa IDOi assay (kynurenine by mass spectrometry); format: cell-based; details: HeLa cells stimulated with IFN-γ, 2 days, kynurenine by MS; read-out: pXC50 HeLa (converted)
T2 construct: host or cells: HeLa cells stimulated with IFN-γ

[2] = molecular target: T3, indoleamine 2, 3-dioxygenase (IDO1) in IFN-γ/LPS stimulated human peripheral blood mononuclear cells (PBMC) (Homo sapiens, UniProt P14902); test: PBMC IDOi assay (kynurenine by mass spectrometry); format: cell-based; details: human PBMC stimulated with IFN-γ and LPS, 2 days, kynurenine by MS; read-out: pXC50 PBMC (converted)
T3 construct: host or cells: human PBMC stimulated with IFN-γ and LPS

[3] = molecular target: T4, indoleamine 2, 3-dioxygenase (IDO1) in IFN-γ/LPS stimulated human monocyte-derived dendritic cells (MDDC) (Homo sapiens, UniProt P14902); test: IDOi MDDC assay (kynurenine by mass spectrometry); format: cell-based; details: human MDDC stimulated with IFN-γ and LPS, 2 days, kynurenine by MS; read-out: pXC50 MDDC (converted)
T4 construct: host or cells: human monocyte-derived dendritic cells stimulated with IFN-γ and LPS

[4] = In vivo pharmacokinetics, rat clearance; details: plasma, intravenous, male nonfasted Wistar Han rats, doses 1 mg/kg i.v. and 5 mg/kg p.o.
Procedure: In vivo pharmacokinetic methods, rat: Male nonfasted Wistar Han rats (n=3) received test article at doses of 1 mg/kg i.v. (1 mL/kg) and 5 mg/kg p.o. (5 ml/kg) formulated in a DMSO/solutol/10% hydroxyl-propyl β cyclodextrin (10:10:80) dosing vehicle. For all animals,food and water was provided ad libitum. Blood samples were withdrawn from a surgically-implanted venous cannula at timed intervals for 24 h after dose administration, treated with EDTA, and centrifuged to harvest plasma for LC/MS/MS analysis. Plasma concentration-time data for individual rats were analyzed by noncompartmental analysis using the Phoenix™ WinNonlin® (version 6.2.1, Pharsight Corp., St. Louis, Mo.) software to generate pharmacokinetic parameter estimates.

[5] = In vivo pharmacokinetics, mouse clearance

T1 sequence (P14902 whole entry): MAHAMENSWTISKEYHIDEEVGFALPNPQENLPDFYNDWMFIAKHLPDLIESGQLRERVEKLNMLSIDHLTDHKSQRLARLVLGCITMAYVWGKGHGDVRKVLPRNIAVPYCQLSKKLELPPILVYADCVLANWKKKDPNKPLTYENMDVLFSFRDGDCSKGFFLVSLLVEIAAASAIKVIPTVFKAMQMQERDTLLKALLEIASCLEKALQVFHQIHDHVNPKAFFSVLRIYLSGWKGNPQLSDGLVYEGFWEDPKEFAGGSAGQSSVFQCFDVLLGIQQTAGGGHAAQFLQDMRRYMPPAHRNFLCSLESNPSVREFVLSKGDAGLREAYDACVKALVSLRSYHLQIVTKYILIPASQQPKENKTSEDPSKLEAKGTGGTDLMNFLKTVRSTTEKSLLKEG
T2 sequence (P14902 whole entry): as above
T4 sequence (P14902 whole entry): as above
T3 sequence (P14902 whole entry): as above

Structure (SMILES) | IC50 (Recombinant human IDO1) | IC50 [1] | IC50 [2] | IC50 [3] | clearance [4] | clearance [5]
ON=C(Nc1ccc(F)c(Br)c1)c1nonc1Nc1ccc(B(O)O)cc1 [Compound 10] | 25.1 nM | 158 nM | 200 nM | 631 nM | 220 mL/min/kg | –
O=C(CN1CCOB2OCc3cccc1c32)NCCNc1nonc1C(=NO)Nc1ccc(F)c(Br)c1 [Compound 7] | 100 nM | 631 nM | 398 nM | – | 180 mL/min/kg | –
NS(=O)(=O)NCCNc1nonc1C(=NO)Nc1ccc(F)c(Br)c1 [Compound 11, reference compound] | – | – | – | – | 50.6 mL/min/kg | 37.2 mL/min/kg
CN(Cc1cccc2c1COB2O)C(=O)CNc1nonc1C(=NO)Nc1ccc(F)c(Br)c1 [Compound 5, 2-((4-(N-(3-Bromo-4-fluorophenyl)-N′-hydroxycarbamimidoyl)-1,2,5-oxadiazol-3-yl)amino)-N-((1-hydroxy-1,3-dihydrobenzo[c][1,2]oxaborol-4-yl)methyl)-N-methylacetamide 2,2,2-trifluoroacetate] | 100 nM | 200 nM | 158 nM | 126 nM | 2.8 mL/min/kg | 3.1 mL/min/kg

More lines, now with the values ahead:

IC50 (Recombinant human IDO1) | IC50 [1] | IC50 [2] | IC50 [3] | clearance [4] | clearance [5] | Structure (SMILES)
31.6 nM | 100 nM | 31.6 nM | 63.1 nM | 238 mL/min/kg | – | O=C(NCCNc1nonc1C(=NO)Nc1ccc(F)c(Br)c1)Nc1ccc(B(O)O)cc1 [Compound 9]
79.4 nM | 158 nM | 50.1 nM | 79.4 nM | 74.9 mL/min/kg | – | O=C(NCCNc1nonc1C(=NO)Nc1ccc(F)c(Br)c1)c1ccc2c(c1)COB2O [Compound 8]
100 nM | 100 nM | 126 nM | 158 nM | 0.8 mL/min/kg | 0.6 mL/min/kg | O=C(NCCNc1nonc1C(=NO)Nc1ccc(F)c(Br)c1)c1cccc2c1B(O)OCC2 [Compound 1, N-(2-((4-(N-(3-bromo-4-fluorophenyl)-N′-hydroxycarbamimidoyl)-1,2,5-oxadiazol-3-yl)amino)ethyl)-1-hydroxy-3,4-dihydro-1H-benzo[c][1,2]oxaborinine-8-carboxamide]
200 nM | 631 nM | 501 nM | – | – | – | O=C(NCCNc1nonc1C(=NO)Nc1ccc(F)c(Br)c1)c1cccc2c1B(O)OC=C2 [Compound 2, N-(2-((4-(N-(3-Bromo-4-fluorophenyl)-N′-hydroxycarbamimidoyl)-1,2,5-oxadiazol-3-yl)amino)ethyl)-1-hydroxy-1H-benzo[c][1,2]oxaborinine-8-carboxamide]
79.4 nM | 158 nM | 100 nM | 100 nM | 4.8 mL/min/kg | 7.1 mL/min/kg | O=C(NCCNc1nonc1C(=NO)Nc1ccc(F)c(Br)c1)c1cccc2c1B(O)OC2 [Compound 6, N-(2-((4-(N-(3-Bromo-4-fluorophenyl)-N′-hydroxycarbamimidoyl)-1,2,5-oxadiazol-3-yl)amino)ethyl)-1-hydroxy-1,3-dihydrobenzo[c][1,2]oxaborole-7-carboxamide]
50.1 nM | 158 nM | 100 nM | 1260 nM | 2 mL/min/kg | – | O=C(NCCNc1nonc1C(=NO)Nc1ccc(F)c(Br)c1)c1ccc2c(c1)B(O)OCC2 [Compound 4, N-(2-((4-(N-(3-Bromo-4-fluorophenyl)-N′-hydroxycarbamimidoyl)-1,2,5-oxadiazol-3-yl)amino)ethyl)-1-hydroxy-3,4-dihydro-1H-benzo[c][1,2]oxaborinine-7-carboxamide]
79.4 nM | 1260 nM | 316 nM | 2000 nM | 0.8 mL/min/kg | – | O=C(NCCNc1nonc1C(=NO)Nc1ccc(F)c(Br)c1)c1ccc2c(c1)B(O)OC=C2 [Compound 3, N-(2-((4-(N-(3-Bromo-4-fluorophenyl)-N′-hydroxycarbamimidoyl)-1,2,5-oxadiazol-3-yl)amino)ethyl)-1-hydroxy-1H-benzo[c][1,2]oxaborinine-7-carboxamide]
